Reference: patent US20250034218A1, “ANTIMICROBIAL PEPTIDES” (BiomEdit, LLC, priority 2021, published 2025)
Ends that are not written are not given here.

What was measured:
E. coli DH5 alpha = assay type: cell-based, Escherichia coli
Procedure: A MIC assay was set up using heat treated CAP18 variants in a 96-well plate. […] Appropriate controls (media only control, no CAP18 control) were included on the same plate. The plates were incubated at 37° C. for 24-48 hours and MIC for each variant was recorded. The experiment was repeated 3 times.

E. coli DH5alpha [1] = assay type: cell-based, Escherichia coli; settings: peptide treated with proteinase K at 37° C. before MIC assay
Procedure: CAP18 peptide variants single mutants were evaluated for resistance to proteinase K. Peptides were subjected to proteinase K treatment and then assessed for bacterial cell killing (against E. coli) in a MIC assay.
CAP18 variants were synthesized from GenScript, Inc, and solubilized in sterile purified water to a final concentration of 4 mg/ml. E. coli DH5alpha was grown overnight in 10 ml LB broth. Ten microliters of each CAP18 variant was treated with 2 μl of proteinase K (Qjagen, >600 mAU/ml) and incubated at 37° C. for 2 or 5 minutes in a PCR machine. The samples were then incubated at 98° C. for 5 minutes to inactivate proteinase K. An MIC assay was set up using proteinase K-treated CAP18 variants in a 96-well plate. Briefly, the peptides were serially diluted 2-fold in LB broth to achieve a final volume of 50 μl in each well and 50 μl of the E. coli DH5alpha culture adjusted to a concentration of 2×10^6 cells/ml was added into each well. Appropriate controls (media only control, no CAP18 control) were included on the same plate. The plates were incubated at 37° C. for 24-48 hours and MIC for each variant was recorded. The experiment was repeated 3 times.

E. coli DH5alpha [2] = assay type: cell-based, Escherichia coli; settings: peptide treated with trypsin at 37° C. before MIC assay
Procedure: CAP18 peptide variants single mutants were evaluated for resistance to trypsin. Peptides were subjected to trypsin protease treatment and then assessed for bacterial cell killing (against E. coli) in a MIC assay.
CAP18 variants were synthesized from GenScript, Inc, and solubilized in sterile purified water to a final concentration of 4 mg/ml. E. coli DH5alpha was grown overnight in 10 ml LB broth. Ten microliters of each CAP18 variant was treated with 2 μl (or 2 μl of the 10-fold diluted trypsin) of trypsin (0.25%, Sigma Aldrich) and incubated at 37° C. for 2 or 5 minutes in a PCR machine. The samples were then incubated at 98° C. for 5 minutes to inactivate trypsin. An MIC assay was set up using trypsin-treated CAP18 variants in a 96-well plate. Briefly, the peptides were serially diluted 2-fold in LB broth to achieve a final volume of 50 μl in each well and 50 μl of the E. coli DH5alpha culture adjusted to a concentration of 2×10^6 cells/ml was added into each well. Appropriate controls (media only control, no CAP18 control) were included on the same plate. The plates were incubated at 37° C. for 24-48 hours and MIC for each variant was recorded. The experiment was repeated 3 times.

[3] = test system: Escherichia coli Dh5alpha; assay: MIC with diluted or undiluted trypsin and without trypsin (variant CAP18 peptides); assay type: cell-based; settings: compared to WT CAP18
Procedure: Testing of CAP18 variants for protease resistance using Escherichia coli Dh5alpha as an indicator organism. CAP18 variants were synthesized from GenScript, Inc, and solubilized in sterile purified water to a final concentration of 4 mg/ml. E. coli DH5alpha was grown overnight in 10 ml LB broth. Ten microliters of each CAP18 variant was treated with 2 μl (or 2 μl of the 10-fold diluted trypsin) of trypsin (0.25%, Sigma Aldrich) and incubated at 37° C. for 2 or 5 minutes in a PCR machine. An MIC assay was set up using trypsin-treated CAP18 variants in a 96-well plate. Briefly, the peptides were serially diluted 2-fold in LB broth to achieve a final volume of 50 μl in each well and 50 μl of the E. coli DH5alpha culture adjusted to a concentration of 2×10^6 cells/ml was added into each well. Appropriate controls (media only control, no CAP18 control) were included on the same plate. The plates were incubated at 37° C. for 24-48 hours and MIC for each variant was recorded. The experiment was repeated 3 times.
Numerous variant CAP18 peptides were tested to determine and assess their resistance to protease. In each assessment, the variant CAP18 peptides were compared to wild type CAP18 rabbit sequence ([…] (SEQ ID NO:1)). Peptides were evaluated using trypsin diluted 1:10, 1:2 and undiluted. Experiments were conducted in duplicate. In each instance minimal inhibitory concentration (MIC) of the peptide was determined in the presence of the applicable diluted or undiluted trypsin and in the absence of trypsin. Experiments l and 2 are duplicate assessments with 1:10 diluted trypsin. Experiments 3 and 4 are duplicate assessments with 1:2 diluted trypsin. Experiments 5 and 6 are duplicate assessments with undiluted trypsin.

Giardia = Giardia plate assay, % of control (Table 3); assay type: cell-based; settings: Conc 10 (uM or %); plate G7
Excerpt: Data comparing AMP01 (wild type CAP 18 peptide (SEQ ID NO: 1) with various other agents is tabulated in Table 3. NTZ corresponds to nitazoxanide. ALB corresponds to albendazole.

[4] = test system: Bovine Respiratory Disease (BRD); settings: positive control treatment; reduces from approximately 30%; cited from earlier work

For “GLRKRLRPFRNKIKEKLKKIGQKIQGLLPKLAPRTDY [C2]”, the “Thermotolerance at 90 for 5 minutes (MIC, ug/ml)” value (shortened to “Thermotolerance”) (E. coli DH5 alpha) was 100 µg/mL, the “Resistance to proteinase K (MIC, ug/ml)” value (E. coli DH5alpha [1]) was greater than 400 µg/mL and the “Resistance to trypsin (MIC, ug/ml)” value (E. coli DH5alpha [2]) was greater than 400 µg/mL.

For “GLRKKLRKFRNKIKEKLKKIGQKIQGLLPKLAPRTDY [C8]”, the “Thermotolerance” value (E. coli DH5 alpha) was 100 µg/mL, the “Resistance to proteinase K (MIC, ug/ml)” value (E. coli DH5alpha [1]) was 400 µg/mL and the “Resistance to trypsin (MIC, ug/ml)” value (E. coli DH5alpha [2]) was 50 µg/mL.

With “CWTKSIPPKPCGLRKKLKKIRNKIKEKLKKIGQKIQGLLPKLAPRTDY (Description of sequence: Mutation Sequence) [SEQ ID NO: 20]” the “activity (MIC) and protease resistance” value [3] was “better activity (lower MIC) and protease resistance”.

With “GLRKRLRKFKNKIKEKLKKIGQKIQGLLPKLAPRTDY [C10]” the “Thermotolerance” value (E. coli DH5 alpha) was 100 µg/mL, the “Resistance to proteinase K (MIC, ug/ml)” value (E. coli DH5alpha [1]) was 400 µg/mL and the “Resistance to trypsin (MIC, ug/ml)” value (E. coli DH5alpha [2]) was 50 µg/mL.

With “GLRKRLRKFRPKIKEKLKKIGQKIQGLLPKLAPRTDY [C3]” the “Thermotolerance” value (E. coli DH5 alpha) was greater than 400 µg/mL, the “Resistance to proteinase K (MIC, ug/ml)” value (E. coli DH5alpha [1]) was greater than 400 µg/mL and the “Resistance to trypsin (MIC, ug/ml)” value (E. coli DH5alpha [2]) was greater than 400 µg/mL.

For “GLRKRLKKFRNKIKEKLKKIGQKIQGLLPKLAPRTDY [C9]”, the “Thermotolerance” value (E. coli DH5 alpha) was 50 µg/mL, the “Resistance to proteinase K (MIC, ug/ml)” value (E. coli DH5alpha [1]) was 400 µg/mL and the “Resistance to trypsin (MIC, ug/ml)” value (E. coli DH5alpha [2]) was 400 µg/mL.

For “CWTKSIPPKPCGCRKPLRKIRNKIKEKLKKIGQKIQGLLPKLAPRTDY (Description of sequence: Mutation Sequence) [SEQ ID NO: 22]”, the “activity (MIC) and protease resistance” value [3] was “better activity (lower MIC) and protease resistance”.

For “GLRKRLRKFRNKIKEKLKKIGQKIQGLLPKIAPRTDY [C16]”, the “Thermotolerance” value (E. coli DH5 alpha) was 100 µg/mL, the “Resistance to proteinase K (MIC, ug/ml)” value (E. coli DH5alpha [1]) was greater than 400 µg/mL and the “Resistance to trypsin (MIC, ug/ml)” value (E. coli DH5alpha [2]) was 50 µg/mL.

In the case of “GLRPRLRKFRNKIKEKLKKIGQKIQGLLPKLAPRTDY [C1]”, the “Thermotolerance” value (E. coli DH5 alpha) is reported as 200 µg/mL, the “Resistance to proteinase K (MIC, ug/ml)” value (E. coli DH5alpha [1]) is reported as greater than 400 µg/mL and the “Resistance to trypsin (MIC, ug/ml)” value (E. coli DH5alpha [2]) is reported as 100 µg/mL.

For “GLRKRLRKFRNKIKEKLKKIGQKIQGLLPKLAPRPDY [C6]”, the “Thermotolerance” value (E. coli DH5 alpha) was 1200 µg/mL, the “Resistance to proteinase K (MIC, ug/ml)” value (E. coli DH5alpha [1]) was greater than 400 µg/mL and the “Resistance to trypsin (MIC, ug/ml)” value (E. coli DH5alpha [2]) was greater than 400 µg/mL.

For “CWTKSIPPKPCGLRKILKKIKNKIKEKLKKIGQKIQGLLPKLAPRTDY (Description of sequence: Mutation Sequence) [SEQ ID NO: 19]”, the “activity (MIC) and protease resistance” value [3] was “better activity (lower MIC) and protease resistance”.

For “CWTKSIPPKPCGLRKRLRKIKNKIKEKLKKIGQKIQGLLPKLAPKTDY (Description of sequence: Mutation Sequence) [SEQ ID NO: 21]”, the “activity (MIC) and protease resistance” value [3] was “better activity (lower MIC) and protease resistance”.

In the case of CCCSc1ccc2nc(NC(=O)OC)[nH]c2c1 [ALB, albendazole], the “% of control MV” value (Giardia) is reported as 1.5%.

With CC(=O)Oc1ccccc1C(=O)Nc1ncc([N+](=O)[O-])s1 [NTZ, nitazoxanide] the “% of control MV” value (Giardia) was 0.6%.

With “CWTKSIPPKPCGLRKRLKKIKNKIKEKLKKIGQKIQGLLPKLAPRTDY (Description of sequence: Mutation Sequence) [SEQ ID NO: 18]” the “activity (MIC) and protease resistance” value [3] was “effective at the lowest concentration (lowest MIC) and was the most protease resistant in all experiments”.

In the case of CCCNC[C@]1(O)[C@H](C)O[C@@H](O[C@H]2[C@H](C)[C@@H](O[C@@H]3O[C@H](C)C[C@H](N(C)C)[C@H]3O)[C@](C)(O)C[C@@H](C)CN[C@H](C)[C@@H](O)[C@](C)(O)[C@@H](CC)OC(=O)[C@@H]2C)C[C@@]1(C)OC [tulathromycin], the lung consolidation [4] is given as roughly 5%.

In the case of “GLKKRLRKFRNKIKEKLKKIGQKIQGLLPKLAPRTDY [C7]”, the “Thermotolerance” value (E. coli DH5 alpha) is reported as 200 µg/mL, the “Resistance to proteinase K (MIC, ug/ml)” value (E. coli DH5alpha [1]) is reported as greater than 400 µg/mL and the “Resistance to trypsin (MIC, ug/ml)” value (E. coli DH5alpha [2]) is reported as 50 µg/mL.

In the case of “GLRKRLRKFRNKIKEKIKKIGQKIQGLLPKLAPRTDY [C15]”, the “Thermotolerance” value (E. coli DH5 alpha) is reported as 200 µg/mL, the “Resistance to proteinase K (MIC, ug/ml)” value (E. coli DH5alpha [1]) is reported as greater than 400 µg/mL and the “Resistance to trypsin (MIC, ug/ml)” value (E. coli DH5alpha [2]) is reported as 50 µg/mL.

In the case of “GLRKRIRKFRNKIKEKLKKIGQKIQGLLPKLAPRTDY [C14]”, the “Thermotolerance” value (E. coli DH5 alpha) is reported as 100 µg/mL, the “Resistance to proteinase K (MIC, ug/ml)” value (E. coli DH5alpha [1]) is reported as greater than 400 µg/mL and the “Resistance to trypsin (MIC, ug/ml)” value (E. coli DH5alpha [2]) is reported as 50 µg/mL.

For “GLRKRLRKIRNKIKEKLKKIGQKIQGLLPKLAPRTDY [C12]”, the “Thermotolerance” value (E. coli DH5 alpha) was 100 µg/mL, the “Resistance to proteinase K (MIC, ug/ml)” value (E. coli DH5alpha [1]) was 200 µg/mL and the “Resistance to trypsin (MIC, ug/ml)” value (E. coli DH5alpha [2]) was 100 µg/mL.

For “GIRKRLRKFRNKIKEKLKKIGQKIQGLLPKLAPRTDY [C13]”, the “Thermotolerance” value (E. coli DH5 alpha) was 200 µg/mL, the “Resistance to proteinase K (MIC, ug/ml)” value (E. coli DH5alpha [1]) was greater than 400 µg/mL and the “Resistance to trypsin (MIC, ug/ml)” value (E. coli DH5alpha [2]) was 100 µg/mL.

For “GLRKRLRKFRNKIKPKLKKIGQKIQGLLPKLAPRTDY [C4]”, the “Thermotolerance” value (E. coli DH5 alpha) was 400 µg/mL, the “Resistance to proteinase K (MIC, ug/ml)” value (E. coli DH5alpha [1]) was greater than 400 µg/mL and the “Resistance to trypsin (MIC, ug/ml)” value (E. coli DH5alpha [2]) was greater than 400 µg/mL.

With “GLRKRLRKFRNKIKEKLKKIGQKIQGLLPKLAPKTDY [C11]” the “Thermotolerance” value (E. coli DH5 alpha) was 200 µg/mL, the “Resistance to proteinase K (MIC, ug/ml)” value (E. coli DH5alpha [1]) was greater than 400 µg/mL and the “Resistance to trypsin (MIC, ug/ml)” value (E. coli DH5alpha [2]) was 200 µg/mL.

For “GLRKRLRKFRNKIKEKLKKIGQKIQGLLPKPAPRTDY [C5]”, the “Thermotolerance” value (E. coli DH5 alpha) was greater than 400 µg/mL, the “Resistance to proteinase K (MIC, ug/ml)” value (E. coli DH5alpha [1]) was greater than 400 µg/mL and the “Resistance to trypsin (MIC, ug/ml)” value (E. coli DH5alpha [2]) was 400 µg/mL.
